Experimental data as given in patent US20260285835A1, “SOLID FORM OF PYRROLIDONE DERIVATIVE AS GLUCOKINASE ACTIVATOR” (priority 2023, published 2026).
Where two headings read alike, the source gives them in different places.

Key:
[1] = Simulated metabolic test in human intestine S9; assay type: in vitro ADME
Procedure: 73.21 g of K2HPO4·3H2O (AR grade) and 10.78 g of KH2PO4 (AR grade) were dissolved in ultra-pure water to obtain a final volume of 4000 mL and a final concentration of 100 mM. The pH of the final test solution was adjusted to 7.40±0.10 with H3PO4/KOH.
An Apricot automation workstation was used to add 50 μL/well of HIS9 solution to the corresponding wells of all reaction plates (blank, T0, T5, T15, T30, T45, T60).
An Apricot automation workstation was used to add 48 μL/well of PB to the corresponding wells of every reaction plate (blank, T0, T5, T15, T30, T45, T60) to start the reaction.
The reaction plates were incubated at 37° C., and timer was started. An Apricot automation workstation was used to add 300 μL/well of stop solution (cold acetonitrile containing 200 ng/mL tolbutamide (internal standard)) to the corresponding wells of each reaction plate at the appropriate end time point to stop the reaction.
Each plate was sealed and shaken for 10 minutes. Each plate was centrifuged at 4000 rpm and 4° C. for 20 minutes. After centrifugation, 100 μL of supernatant was transferred from each reaction plate to the corresponding analysis plate, and mixed well with 300 μL of ultra-pure water.

[2] = Stability test in simulated gastric fluid (SGF); assay type: in vitro ADME; details: 37° C.
Procedure: 0.04 g of NaCl and 0.064 g of pepsin were dissolved in 0.14 mL of HCl, and water was added to bring the total volume to 20 mL. The pH of the test solution was about 1.20±0.05.
Then 200 μL of supernatant was pipetted and mixed completely again with 400 μL of cold acetonitrile containing 200 ng/mL tolbutamide (internal standard). 7) All samples were centrifuged at 4000 rpm, 4° C. for 20 min. • 8) 60 μL of supernatant was pipetted and mixed completely with 180 μL of ultra-pure water, and the mixture was subjected to LC-MS/MS analysis.

[3] = Caco-2 bi-directional permeability test; assay type: in vitro ADME; details: human; for metabolised at 2 h, 2 µM: Caco-2, pH 7.4, Compound A concentration 2.00 μM; for metabolised at 2 h, 10 µM: Caco-2, pH 7.4, Compound A concentration 10.0 μM; for metabolised at 2 h, 30 µM: Caco-2, pH 7.4, Compound A concentration 30.0 μM
Procedure: (§1) Caco-2 cell culture: Caco-2 cells (purchased from American Type Culture Collection, ATCC) were inoculated on polyethylene film (PET) of a 96-well culture plate at a concentration of 1×10^5 cells/cm^2. The culture medium was replaced every 4 days until cell confluency to form cell monolayer on day 21 or 28.
(§2) Transport test: Transport buffer used in the test was Hanks' Balanced Salt Solution (HBSS) containing 10 mM 2-[4-(2-hydroxyethyl)-1-piperazinyl]ethanesulfonic acid (HEPES) with a pH of 7.40±0.05. […] The final concentration of DMSO in the incubation system was adjusted to <1%.

Caco-2 cells = experiment: Caco-2 bi-directional permeability test; assay type: in vitro ADME
Procedure: as §1, §2

C57BL/6J mice = experiment: Pharmacodynamic study: OGTT blood glucose and insulin level in C57BL/6J mice; assay type: in vivo; details: for Blood glucose level at 0 min (pre-glucose) vs vehicle control group: each administration group, 1 hour after administration, dose-response relationship
Procedure: There were 7 groups of mice, with 8 mice in each group. […] Oral glucose tolerance test (OGTT) was performed 1 hour after administration. The blood glucose level in mice was tested before administration (−60 min), before sugar administration (0 min), and at 15 min, 30 min, 60 min, and 120 min after sugar administration. In addition, 40 μl of blood was collected from the tail tip before sugar administration (0 min) and at 15 min after sugar administration to collect the plasma for an insulin level test.
All data was transferred into an Excel document. The blood glucose results were expressed in mg/dL and expressed as MEAN±SEM. Differences between multiple groups were analyzed using Dunnett's method in one-way analysis of variance (ANOVA) or two-way analysis of variance (ANOVA) with Graphpad Prism 8 software for comparison, and the differences were considered statistically significant when the P value was less than 0.05.

[4] = Stability test in simulated intestinal fluid (SIF); assay type: in vitro ADME; details: 37° C.
Procedure: 0.136 g of KH2PO4 and 0.2 g of pancreatin were dissolved in water to obtain a final volume of 20 mL. The pH of the test solution was about 6.80±0.05.
Then 200 μL of supernatant was pipetted and mixed completely again with 400 μL of cold acetonitrile containing 200 ng/mL tolbutamide (internal standard). • 7) All samples were centrifuged at 4000 rpm, 4° C. for 20 min. • 8) 60 μL of supernatant was pipetted and mixed completely with 180 μL of ultra-pure water, and the mixture was subjected to LC-MS/MS analysis.

[5] = assay type: in vivo; details: rats
Procedure: Each group was divided into 2 subgroups (intravenous bolus group (IV) and gavage group (PO)).
Whole blood samples (about 0.2 mL per time point) were collected at pre-dose (0), 0.083, 0.25, 0.5, 1, 2, 4, 8, 12, and 24 hours post-dose by jugular vein puncture. All the blood samples were immediately transferred into labeled pre-chilled commercial microcentrifuge tubes containing 4 μL of 0.5M K2-EDTA and 10 μL of cocktail stabilizer. Samples were placed on wet ice until centrifugation (within 30 min). Plasma samples were then prepared by centrifuging the blood samples at approximately 4° C., 3200×g for 10 minutes. Supernatant plasma was pipetted, then quickly frozen over dry ice, and then kept at −60° C. or lower temperature until LC-MS/MS analysis. The cocktail stabilizer was prepared according to the following Table 8:
The plasma concentrations were subjected to a non-compartmental pharmacokinetic analysis by using the WinNonlin™ software program (version 6.3).

[6] = Forced degradation stability test (heat, humidity and heat, light); assay type: physicochemical; details: light box 10 days
Procedure: About 10 mg of the sample powder was weighed and placed in a transparent vial, an amber vial, and a transparent vial sealed with aluminum foil, respectively. Those vials were placed in a light box for 10 days, with a total illumination of 1.2×10^6 Lux·hr and a near-UV energy not less than 200w·hr/m^2, for photostability evaluation.
The samples were taken at each time point for HPLC and XRPD analysis to evaluate the chemical and physical stability.

[7] = High-humidity stability (90% RH) of free state crystal form A; assay type: physicochemical
From the text: (§3) The resulting sample was sampled at day 6, day 14 and day 34 for HPLC analysis.

[8] = High-temperature stability (60° C.) of free state crystal form A; assay type: physicochemical
From the text: as §3

[9] = Photostability (direct sunlight) of free state crystal form A; assay type: physicochemical
From the text: The resulting sample was sampled at day 4 and day 15 for HPLC analysis.

[10] = assay type: physicochemical; details: room temperature
[11] = Dynamic vapour sorption (DVS) test; assay type: physicochemical; details: 25° C.
Procedure: A dynamic vapour sorption (DVS) test was conducted on crystal form A of the free state and crystal form B of the hydrochloride.
A certain amount of powder was taken and put into a sample pan, and hygroscopicity of the sample was evaluated with DVS according to the following instrument method: […]

[12] = read-out: Average conversion rate to parent drug HMS5552 (%) A→B
[13] = read-out: Average conversion rate to parent drug HMS5552 (%) B→A
[14] = Compound A concentration 2.00 μM
[15] = Compound A concentration 10.0 μM, 120 min
[16] = Compound A concentration 30.0 μM, 120 min

CC(C)C[C@@H](C(=O)Nc1ccn(C[C@@H](O)COC(=O)c2cccnc2)n1)N1CC(Oc2ccccc2Cl)=CC1=O [Compound A, (R)-3-(3-((S)-2-(4-(2-chlorophenoxy)-2-oxo-2,5-dihydro-1H-pyrrol-1-yl)-4-methylpentanamido)-1H-pyrazol-1-yl)-2-hydroxypropyl nicotinate]
Parent drug HMS5552 (%) ([1]; HIS9 0.5 mg/mL, 37° C., 0 min): 1.1%
Time to complete metabolism and conversion into parent drug HMS5552 ([1]; human intestine S9): ≤ 5 min
metabolised at 5 min ([1]; human, s9, pH 7.4, HIS9 0.5 mg/mL, 37° C., 5 min, read-out: Parent drug HMS5552 (%)): 80%
metabolised at 0.25 h ([1]; human, s9, pH 7.4, HIS9 0.5 mg/mL, 37° C., 15 min, read-out: Parent drug HMS5552 (%)): 77.2%
metabolised at 0.5 h ([1]; human, s9, pH 7.4, HIS9 0.5 mg/mL, 37° C., 30 min, read-out: Parent drug HMS5552 (%)): 79.8%
metabolised at 0.75 h ([1]; human, s9, pH 7.4, HIS9 0.5 mg/mL, 37° C., 45 min, read-out: Parent drug HMS5552 (%)): 81.2%
metabolised at 1 h ([1]; human, s9, pH 7.4, HIS9 0.5 mg/mL, 37° C., 60 min, read-out: Parent drug HMS5552 (%)): 90.5%
Parent drug HMS5552 (%) ([2]; generation in SGF, 2 μM, 0 hr): 0.92%
metabolised at 1 h, 2 µM ([2]; simulated gastric fluid, pH 1.2, generation in SGF, 1 hr, read-out: Parent drug HMS5552 (%)): 0.86%
metabolised at 2 h, 2 µM ([2]; simulated gastric fluid, pH 1.2, generation in SGF, 2 hr, read-out: Parent drug HMS5552 (%)): 0.87%
metabolised at 6 h, 2 µM ([2]; simulated gastric fluid, pH 1.2, generation in SGF, 6 hr, read-out: Parent drug HMS5552 (%)): 1.02%
metabolised at 24 h, 2 µM ([2]; simulated gastric fluid, pH 1.2, generation in SGF, 24 hr, read-out: Parent drug HMS5552 (%)): 1.63%
metabolised at 2 h, 2 µM [3, 12]: 26.5%
metabolised at 2 h, 2 µM [3, 13]: 5.8%
metabolised at 2 h, 10 µM [3, 12]: 37.4%
metabolised at 2 h, 10 µM [3, 13]: 5.6%
metabolised at 2 h, 30 µM [3, 12]: 26.8%
metabolised at 2 h, 30 µM [3, 13]: 3.4%
Average recovery rate (%) A→B (Caco-2 cells; [14]): 52.9%
Average recovery rate (%) B→A (Caco-2 cells; [14]): 87.1%
The average apparent permeability Papp A→B (Caco-2 cells; [14]): 0.02977 10^−6 cm/s
Average recovery rate (%) A→B (Caco-2 cells; [15]): 37.5%
Average recovery rate (%) B→A (Caco-2 cells; [15]): 81.6%
The average apparent permeability Papp A→B (Caco-2 cells; [15]): 0.03187 10^−6 cm/s
Average recovery rate (%) B→A (Caco-2 cells; [16]): 82.2%
The average apparent permeability Papp A→B (Caco-2 cells; [16]): 0.04322 10^−6 cm/s
Insulin level at 15 min vs corresponding dose group of HMS5552 (C57BL/6J mice; oral 18.4 mg/kg): significantly higher than that of the corresponding dose group of HMS5552
Insulin level at 15 min vs vehicle control group (C57BL/6J mice; oral 18.4 mg/kg): significantly higher than that of the vehicle control group
Insulin level at 15 min vs vehicle control group (C57BL/6J mice; oral 49.1 mg/kg): significantly higher than that of the vehicle control group
OGTT blood glucose values vs vehicle control group (C57BL/6J mice; oral 49.1 mg/kg, at 15 min, 30 min, 60 min and 120 min after glucose): significantly lower than that of the vehicle control group
OGTT blood glucose values vs HMS5552-40 mg/kg group (C57BL/6J mice; oral 49.1 mg/kg, at 30 min, 60 min and 120 min after glucose): significantly lower than that of the HMS5552-40 mg/kg group
Blood glucose level at 0 min (pre-glucose) vs vehicle control group (C57BL/6J mice; oral): generally lower than that of the vehicle control group
Insulin level at 0 min vs vehicle control group and HMS5552 high-dose group (C57BL/6J mice; oral, high-dose group): significantly higher than that of the vehicle control group and the HMS5552 high-dose group
OGTT AUC0-120min vs corresponding dose groups of HMS5552 (C57BL/6J mice; oral, medium and high dose groups): significantly lower than those of the corresponding dose groups of HMS5552
Parent drug HMS5552 (%) ([4]; generation in SIF, 2 μM, 0 hr): 0.86%
metabolised at 1 h, 2 µM ([4]; simulated intestinal fluid, pH 6.8, generation in SIF, 1 hr, read-out: Parent drug HMS5552 (%)): 35.6%
metabolised at 2 h, 2 µM ([4]; simulated intestinal fluid, pH 6.8, generation in SIF, 2 hr, read-out: Parent drug HMS5552 (%)): 46.6%
metabolised at 6 h, 2 µM ([4]; simulated intestinal fluid, pH 6.8, generation in SIF, 6 hr, read-out: Parent drug HMS5552 (%)): 72.8%
metabolised at 24 h, 2 µM ([4]; simulated intestinal fluid, pH 6.8, generation in SIF, 24 hr, read-out: Parent drug HMS5552 (%)): 73.4%
Metabolism after intravenous injection (in words) [5]: metabolized very rapidly

CC(C)C[C@@H](C(=O)Nc1ccn(C[C@@H](O)CO)n1)N1CC(Oc2ccccc2Cl)=CC1=O [HMS5552, (S)-2-(4-(2-chlorophenoxy)-2-oxo-2,5-dihydro-1H-pyrrol-1-yl)-N-(1-((R)-2,3-dihydroxypropyl)-1H-pyrazol-3-yl)-4-methylpentanamide, reference compound]
OGTT blood glucose values vs vehicle control group (C57BL/6J mice; oral 40 mg/kg, at 30 min, 60 min and 120 min after glucose): significantly lower than that of the vehicle control group
Blood glucose level at 0 min (pre-glucose) vs vehicle control group (C57BL/6J mice; oral): generally lower than that of the vehicle control group
Insulin levels at 0 min and 15 min vs vehicle control group (C57BL/6J mice; oral, each dose group): slightly higher than those in the vehicle control group, without significant difference

CC(C)C[C@@H](C(=O)Nc1ccn(C[C@@H](O)COC(=O)c2cccnc2)n1)N1CC(Oc2ccccc2Cl)=CC1=O [crystal form A of the free state, (R)-3-(3-((S)-2-(4-(2-chlorophenoxy)-2-oxo-2,5-dihydro-1H-pyrrol-1-yl)-4-methylpentanamido)-1H-pyrazol-1-yl)-2-hydroxypropyl nicotinate]
Crystalline form after forced degradation (XRPD) ([6]; 50° C., 80° C., 40° C./75% RH (unsealed), 1 day, 2 weeks, 4 weeks): does not change
Effect of light on stability ([6]; […]10^6 Lux·hr, near-UV not less than 200w·hr/m^2): no effect on the stability
Purity (Area %) ([7]; 0 hour): 98.17 Area %
High-humidity stability (HPLC), conclusion ([7]; 90% RH without cover): still stable after being placed under the condition of 90% relative humidity for 14 days
Purity (Area %) ([7]; 90% RH, Day 6, without cover): 98.99 Area %
Purity (Area %) ([7]; 90% RH, Day 14, without cover): 99.09 Area %
Purity (Area %) ([8]; 0 h): 98.17 Area %
High-temperature stability (HPLC), conclusion ([8]; 60° C. oven without cover): still stable after being placed at 60 °C for 14 days
Purity (Area %) ([8]; 60° C., Day 6, without cover): 99.03 Area %
Purity (Area %) ([8]; 60° C., Day 14, without cover): 99.11 Area %
Purity (Area %) ([9]; 0 hour): 98.17 Area %
Photostability (HPLC), conclusion ([9]; direct sunlight): still stable after being placed under sunlight for 15 days
Purity (Area %) ([9]; direct sunlight, Day 4): 99.07 Area %
Purity (Area %) ([9]; direct sunlight, Day 15): 99.10 Area %
Solubility (mg/mL) ([10]; DMAc): S>40.0 mg/mL
Solubility (mg/mL) ([10]; DMSO): S>42.0 mg/mL
Solubility (mg/mL) ([10]; MeOH): S>42.0 mg/mL
Solubility (mg/mL) ([10]; NMP): S>40.0 mg/mL
Solubility (mg/mL) ([10]; n-Heptane): S<1.1 mg/mL
Moisture-induced weight gain ([11]; relative humidity of 95%): less than 0.7%
Moisture-induced weight gain ([11]; relative humidity of less than or equal to 90%): less than 0.5%
